“Also recorded” adds a separate entry of the source. Where no end group is shown, it is not given here.
Key:
SNU398 = assay: Cell proliferation assay (CellTiter-Glo), SNU398; format: cell-based; conditions: SNU398, RAF1 mRNA (Log2) 6.07, 72 hrs
Description: (§1) Cell Proliferation Assay. The Tat-RAF1-73, Tat-RAF1-78, Tat-EGFR-697 and Tat-Flag peptides were tested for growth inhibition in an in vitro cell proliferation assay. The assay tested the peptides against ten tumor cell lines and four non-tumor cell lines (Primary Fibroblasts, CCD 841 CoN, human umbilical vein cells and Human Hepatocytes). Cells were plated in a 384 well plate and allowed to grow for 24 hrs. Peptides were then added to cultures at a final concentration range of 100 μM-0.2 μM. Cells and peptides were then reacted for 72 hrs, after which the CellTiter-Glo Luminescent Cell Viability Assay kit (Promega) was used to assess cytotoxicity of therapeutic peptides. IC50 values were determined by the percent cell growth of the untreated (vehicle) control calculated from the luminescence signals compared to test wells. The surviving fraction of cells is determined by dividing the mean luminescence values of the test agents by the mean luminescence values of the untreated control. The inhibitory concentration value, IC50, for the test agents and control was estimated using Prism 8 software (GraphPad Software, Inc.) by curve- fitting the data using the non-linear regression analysis.

Human Hepatocytes = assay: Cell proliferation assay (CellTiter-Glo), Human Hepatocytes; format: cell-based; conditions: Human Hepatocytes (non-tumor), 72 hrs
Description: as §1

Colo205 = assay: Cell proliferation assay (CellTiter-Glo), Colo205; format: cell-based; conditions: Colo205, Human Colon, 72 hrs
Description: as §1

HUH6-luc = assay: Cell proliferation assay (CellTiter-Glo), HUH6-luc; format: cell-based; conditions: RAF1 mRNA (Log2) 6.05, 72 hrs
Description: as §1

HT1376 = assay: Cell proliferation assay (CellTiter-Glo), HT1376; format: cell-based; conditions: HT1376, EGFR mRNA (Log2) 5., 72 hrs, starred value was averaged using >100 μM value for one trial result
Description: as §1

[1] = tested on: ten tumor cell lines and four non-tumor cell lines; assay: Cell proliferation assay (CellTiter-Glo), summary over the cell panel; format: cell-based; conditions: any of the cells screened
Description: as §1
Ten cancer cell lines were screened as well as […] non-cancer cell types (e.g. primary fibroblasts, CCD 841 CoN, and human hepatocytes). […]

FaDu = assay: Cell proliferation assay (CellTiter-Glo), FaDu; format: cell-based; conditions: EGFR mRNA (Log2) 6.28, 72 hrs
Description: as §1

MDA-MB-231 = assay: Cell proliferation assay (CellTiter-Glo), MDA-MB-231; format: cell-based; conditions: MDA-MB-231, EGFR mRNA (Log2) 4.78, 72 hrs
Description: as §1

Primary Fibroblasts = assay: Cell proliferation assay (CellTiter-Glo), Primary Fibroblasts; format: cell-based; conditions: Skin Fibroblast (non-tumor), 72 hrs
Description: as §1

CCD 841 CoN = assay: Cell proliferation assay (CellTiter-Glo), CCD 841 CoN; format: cell-based; conditions: Normal Human Colon (non-tumor), 72 hrs
Description: as §1

[2] = tested on: Human umbilical vein endothelial cells (HUVEC); assay: Cell proliferation assay (CellTiter-Glo), HUVEC; format: cell-based; conditions: Normal endothelial (non-tumor), 72 hrs
Description: as §1

A549 = assay: Cell proliferation assay (CellTiter-Glo), A549; format: cell-based; conditions: A549, RAF1 mRNA (Log2) Negative, 72 hrs
Description: as §1

SK-MEL-5 = assay: Cell proliferation assay (CellTiter-Glo), SK-MEL-5; format: cell-based; conditions: SK-MEL-5, EGFR mRNA (Log2) 5.92, 72 hrs
Description: as §1

H929 = assay: Cell proliferation assay (CellTiter-Glo), H929; format: cell-based; conditions: H929, Human Multiple Myeloma, peptides 100 μM-0.2 μM, 72 hrs
Description: as §1

Jurkat = assay: Cell proliferation assay (CellTiter-Glo), Jurkat; format: cell-based; conditions: RAF1 mRNA (Log2) 6.05, 72 hrs
Description: as §1

HEK293T cells = assay: Arrayed validation of lentivirally delivered gene fragments, WST-8 cell growth, HEK293T
Description: (§2) All cell lines used were cultured in DMEM media supplemented with 10% FBS. The fitness impact of highly depleted gene fragments was tested in an arrayed format via a WST-8 (Dojindo) cell growth assay. […] Cells were transduced at an MOI of 4 and switched to puromycin containing media after 48 hours. Following 24 hours of puromycin selection 1,500 cells were seeded per well as biological replicates in a 96 well plate. All experimental groups for Hs578T cells had n=4. […] For HEK293T and MCF-7 cells all experimental groups had n=8. 2 μg/ml puromycin was used to select Hs578T and MCF-7 cells, while 3.5 μg/ml puromycin was used to select MDA-MB-231 and HEK293T cells. […] Cell growth was then quantified via absorbance at 450 nm following 1.5 hrs of incubation with WST-8 reagent. A two-tailed P value was then calculated via an unpaired ttest with Welch's correction.

[3] = tested on: triple-negative breast cancer cell growth; assay: Inhibition of cell growth by drug-like peptides (summary statements); format: cell-based; conditions: compared with FDA approved small molecules
Description: Engineering Peptides for Exogenous Delivery. Peptides shown in FIG. 3B were fused to an N-terminal cell penetrating motif via a (GS)3 linker sequence (Table 5) and chemically synthesized by GenScript's Custom Peptide Synthesis service at crude purity. For dose response experiments, cells were plated in 96 well plates (n=4) at 50% confluency and peptides were added at the indicated concentrations with cell viability quantified after 24hrs via the WST-8 assay. Cell viability was normalized to that of an untreated control on the same plate.

MCF-7 cells = assay: Arrayed validation of lentivirally delivered gene fragments, WST-8 cell growth, MCF-7
Description: as §2

Hs578T cells = assay: Arrayed validation of lentivirally delivered gene fragments, WST-8 cell growth, Hs578T; conditions: 7 days, vs GFP control
Description: as §2

MDA-MB-231 cells = assay: Arrayed validation of lentivirally delivered gene fragments, WST-8 cell growth, MDA-MB-231; conditions: 7 days, vs GFP control
Description: as §2

## GRKKRRQRRRPPQGSGSGSDYKDHDGDYKDHDIDYKDDDDK [Tat-Flag, reference compound]
SNU398
  IC50: > 100 µM
Human Hepatocytes
  IC50: > 100 µM
Colo205
  IC50: > 100 µM
HUH6-luc
  IC50: > 100 µM
HT1376
  IC50: > 100 µM
[1]
  activity in the cells screened: no activity
FaDu
  IC50: > 100 µM
MDA-MB-231
  IC50: > 100 µM
Primary Fibroblasts
  IC50: > 100 µM
CCD 841 CoN
  IC50: > 100 µM
[2]
  IC50: > 100 µM
A549
  IC50: > 100 µM
SK-MEL-5
  IC50: > 100 µM
H929
  IC50: > 100 µM
Jurkat
  IC50: > 100 µM

## GRKKRRQRRRPPQGSGSGSMEAPNQALLRILKETEFKKIKVLGSGAFGTVYKGLWIPEGE [Tat-EGFR-697]
SNU398
  IC50: 29.2 µM
Human Hepatocytes
  IC50: 11.6 µM
Colo205
  IC50: 19.8 µM
HUH6-luc
  IC50: 73.5 µM
HT1376
  IC50: 95.6 µM
FaDu
  IC50: 89.2 µM
MDA-MB-231
  IC50: 56.6 µM
Primary Fibroblasts
  IC50: 15.1 µM
CCD 841 CoN
  IC50: > 100 µM
[2]
  IC50: 14 µM
A549
  IC50: 59.6 µM
SK-MEL-5
  IC50: 27.6 µM
H929
  IC50: 5.1 µM
Jurkat
  IC50: 41.1 µM

## MEAPNQALLRILKETEFKKIKVLGSGAFGTVYKGLWIPEGE [EGFR-697]
HEK293T cells
  cell growth after lentiviral overexpression (WST-8): no growth defects
[3]
  triple-negative breast cancer cell growth in vitro: opposed triple-negative breast cancer cell growth in vitro as effectively as some FDA approved small molecules
MCF-7 cells
  cell growth after lentiviral overexpression (WST-8): reduced fitness defect
Hs578T cells
  cell growth after lentiviral overexpression (WST-8): deleterious to cell growth; also recorded: significant growth arrest
MDA-MB-231 cells
  cell growth after lentiviral overexpression (WST-8): deleterious to cell growth

## MFVDEYDPTIEDSYRKQVVIDGETCLLDILDTAGKEEYSAM [KRAS61K-7]
Hs578T cells
  cell growth after lentiviral overexpression (WST-8): significantly reduced cell growth
MDA-MB-231 cells
  cell growth after lentiviral overexpression (WST-8): significantly reduced cell growth

## MIQNHFVDEYDPTIEDSYRKQVVIDGETCLLDILDTAGKEE [KRAS61K-3]
Hs578T cells
  cell growth after lentiviral overexpression (WST-8): significantly reduced cell growth
MDA-MB-231 cells
  cell growth after lentiviral overexpression (WST-8): significantly reduced cell growth

## MPTIEDSYRKQVVIDGETCLLDILDTAGKEEYSAMRDQYMR [KRAS61K-13]
Hs578T cells
  cell growth after lentiviral overexpression (WST-8): significantly reduced cell growth
MDA-MB-231 cells
  cell growth after lentiviral overexpression (WST-8): significantly reduced cell growth

## MRNGMSLHDCLMKALKVRGLQPECCAVFRLLHEHKGKKARL (cysteines drawn unpaired) [RAF1-73]
HEK293T cells
  cell growth after lentiviral overexpression (WST-8): no growth defects
[3]
  triple-negative breast cancer cell growth in vitro: opposed triple-negative breast cancer cell growth in vitro as effectively as some FDA approved small molecules

Source: US20220307013A1, “GENE FRAGMENT OVEREXPRESSION SCREENING METHODOLOGIES, AND USES THEREOF” (priority 2019, published 2022)
